Laboratory results published in patent US20040097422A1, “Methods of use for tripeptidyl peptidase II inhibitors as anticancer agents” (priority 2002, published 2004).
“Also recorded” adds a separate entry of the source. Residues, ends and D or L forms follow the SMILES beside them. *: point of attachment. CH2Cl = ClC*

Experiments:
Type in all cases: cell-based, human
U20S/centrin-GFP cells [1] = assay: DNA content / cell cycle profile by propidium iodide flow cytometry; conditions: 10 μM, 24 hours
Protocol: Flow cytometry. DNA content of cells was analyzed by propidium iodide staining followed by flow cytometry as described previously (Thompson, et al. 1997 Oncogene 15, 3025-35).

U20S/centrin-GFP cells [2] = assay: Abnormal centriole numbers in transiently transfected U20S/centrin-GFP cells after inhibitor treatment
Source text: (§1) Cell Culture and Transfections. Normal human keratinocytes (NHKs) were isolated from neonatal foreskins and cultured as described previously (Jones, et al. 1997 Genes Dev 11, 2101-11). NHKs were transiently transfected using FuGENE 6 (Roche Molecular Biochemicals, Indianapolis, Ind.) according to manufacturer's instructions. The human osteosarcoma cell line U20S was obtained from the American Type Culture Collection (ATCC) and maintained in Dulbecco's modified Eagle medium (DMEM) supplemented with 10% fetal bovine serum, 50 units/ml penicillin and 50 μg/ml streptomycin. Stable populations expressing centrin-GFP were generated by transfecting U20S cells with 10 μg of a centrin-GFP construct using calcium phosphate co-precipitation (Chen, et al. 1987 Mol Cell Biol 7, 2745-2752) and expansion of stable clones after G418 selection. All transient transfection experiments in U20S/centrin-GFP cells were performed using calcium phosphate coprecipitation (Chen, 1987 Mol Cell Biol 7, 2745-2752). Expression plasmids used were c-Myc, E2F-1, HPV-16 E7, HPV-16 E6, or a hemagglutinin-tagged dominant-negative DP1 mutant (DP 1-HA). Empty vector controls (pCMVneo) were included in all experiments. In all transient transfection experiments, cells were co-transfected with either farnesylatable green fluorescent protein (GFP), DsRed fluorescent protein, or cyan fluorescent protein (CFP; all from Clontech, Inc., Palo Alto, Calif.) as indicated and only cells expressing the respective fluorescent protein were evaluated. The human Burkitt's lymphoma cell line GA-10 was obtained from ATCC and maintained in RPMI 1640 medium containing 10 mM HEPES and supplemented with 10% fetal bovine serum, 50 units/ml penicillin and 50 μg/ml streptomycin. Adapted GA-10 cells were obtained by cultivation of cells in the presence of 1 μM clastolactacystin β-lactone (CLBL; Sigma Corp., St. Louis, Mo.) or 0.1% dimethyl sulfoxide (DMSO; ICN, Inc., Costa Mesa, California).
Proteasome and TPPII inhibition. U20S/centrin-GFP cells were transiently transfected with expression plasmids as indicated using calcium phosphate coprecipitation, washed with PBS 14 hours after transfection, incubated in normal growth media for 8 hours, and incubated in the presence of the inhibitor for another 24 hours. For proteasome inhibition, clastolactacystin β-lactone (CLBL; Sigma Corp.) was used at a […] concentration dissolved in DMSO. The TPPII inhibitor H-Ala-Ala-Phe-chloromethylketone (AAF-CMK; Sigma Corp.) was used at a 1 or 10 μM concentration, respectively, dissolved in DMSO. TPPII inhibitors such as AAF-MCA (ala-ala-phe-methylcoumarin amide) are available from Peptides International, Inc., Louisville, Ky. […] Solvent controls (DMSO or water) were included in all experiments.
Whether this observed increase of cells with abnormal centrosome numbers results from a primary duplication error was further addressed by analyzing the ability of c-Myc to induce abnormal centriole synthesis under transient conditions. Centriole number abnormalities induced by c-Myc were compared to those obtained with different oncogenic stimuli which have been reported previously to deregulate centrosome duplication (Duensing, 2000 Proc Natl Acad USA 97, 10002-7). Besides c-Myc, each of HPV-16 E7, the cooperating oncogene HPV-16 E6, and E2F-1 were included in these experiments. U20S/centrin-GFP cells were transiently transfected with expression plasmids as indicated, and mitochondrial DsRed fluorescent protein was used as a transfection marker (FIGS. 2c,d). Since duplication of centrioles prior to a cell division gives rise to four centrioles, cells with more than four centrioles were considered to have an abnormal number of centrioles.
Analogous to cell cycle progression, centrosome duplication requires activity of the ubiquitin/proteasome machinery (Freed, et al. 1999 Gene Dev 13, 2242-57). […]

GA-10 cells = assay: Abnormal centrosome numbers in GA-10 cells by γ-tubulin immunofluorescence; conditions: GA-10 cells adapted to 1 μM CLBL; untreated 18.7%, DMSO 19.9%
Protocol: For immunofluorescence analysis, sections of formalin-fixed, paraffin-embedded tissue were processed as described previously (Duensing, 2000 Proc Natl Acad 801 USA 97, 10002-7). Cultured cells were either grown on coverslips or cytospin preparations were made from cells growing in suspension. Cells were fixed in 4% paraformaldehyde in PBS and permeabilized with 1% Triton-X 100 in PBS for 10 min each at room temperature. […] Ki-67 was detected using a mouse monoclonal antibody (clone Ki-67; Dako Cytomation California, Inc., Carpinteria, California) at a 1:100 dilution followed by a rhodomine red-labeled donkey anti-mouse secondary antibody as described above. […] Cells were analyzed using a Leica DMLB epifluorescence microscope equipped with a multiband and a CFP filter set (Omega Optical, Brattleboro, Vt.) and a Sony DKC5000 camera system. […]
The proportion of cells with abnormal centrosome numbers was determined using immunofluorescence microscopy for γ-tubulin. […]

[3] = tested on: Burkitt's lymphoma cell line GA-10; assay: Viability of GA-10 cells grown with proteasome inhibitor (trypan blue exclusion)
Protocol: FIG. […] FIG. 5b is an immunoblot analysis of TPPII and c-Myc expression in GA-10 cells adapted to grow in the presence of 1 μM CLBL or 0.1% DMSO. FIG. 5c is a visualizations of centrosomes in GA-10 cells adapted to grow in the presence of 0.1% DMSO (c) or 1 μM CLBL right. Immunofluorescence for γ-tubulin is rhodamine red. Nuclei were stained with DAPI. […] Each bar indicates average+standard error of triplicate colony counts.
as §1, with “The human Burkitt's lymphoma cell line GA-10 was obtained from ATCC and maintained in RPMI 1640 medium containing 10 mM HEPES and supplemented with 10% fetal bovine serum, 50 units/ml penicillin and 50 μg/ml streptomycin. Adapted GA-10 cells were obtained by cultivation of cells in the presence of 1 μM clastolactacystin β-lactone (CLBL; Sigma Corp., St. Louis, Mo.) or 0.1% dimethyl sulfoxide (DMSO; ICN, Inc., Costa Mesa, California).” left out

TPPII = TPPII protein level in adapted GA-10 cells (immunoblot); conditions: GA-10 cells adapted to 1 μM CLBL
Protocol: Immunological Methods. Immunoblot analysis was performed as described previously (Jones et al., 1997). Antibodies used were directed against c-Myc (9E10; Covance/Babco, Berkeley, California), p53 (Ab-6; Oncogene Research Products, Inc., San Diego, Calif.), HPV-16 E7 (ED17; Santa Cruz Biotechnology, Inc., Santa Cruz, California), E2F-1 (C-20; Santa Cruz), HA (12CA5; Boehringer Mannheim, Mannheim, Germany), tripetidyl peptidase II (OEM Concepts, Inc.; Toms River, New Jersey), or Actin (C-2, Santa Cruz).
Based on observations herein that TPPII is required for c-Myc induced abnormal centriole duplication, the effect of growth of cells in the presence of a proteasome inhibitor on altered centrosome numbers, control of centrosome duplication, and cell viability was examined. Cells of a human t(8;14) positive, Epstein-Barr virus (EBV) negative Burkitt's lymphoma cell line GA-10 were used. Cells were grown in the presence of 1 μM CLBL (proteosome inhibitor clastolactacystin β-lactone) or with 0.1% DMSO as a solvent control.

CLBL-adapted GA-10 cells [4] = assay: Growth (viable cell number) of CLBL-adapted GA-10 cells; conditions: 0.1, 1.0, 10, 100 or 500 μM butabindide
Protocol: (§2) FIG. 5a is an analysis of viability of GA-10 cells grown in the presence of 1 μM CLBL or solvent control (0.1% DMSO) as determined by trypan blue exclusion. FIG. 5b is an immunoblot analysis of TPPII and c-Myc expression in GA-10 cells adapted to grow in the presence of 1 μM CLBL or 0.1% DMSO. FIG. 5c is a visualizations of centrosomes in GA-10 cells adapted to grow in the presence of 0.1% DMSO (c) or 1 μM CLBL right. Immunofluorescence for γ-tubulin is rhodamine red. Nuclei were stained with DAPI. […] Each bar indicates average+standard error of triplicate colony counts.
(§3) Centrosome duplication is necessary for orderly progression through mitosis and re-entry in the cell cycle (Hinchcliffe, et al. 2001 Genes Dev 15, 1167-81) in most mammalian cells. Whether TPPII activity is necessary for the growth of CLBL-adapted Burkitt's lymphoma cells was investigated.

U20S/centrin-GFP cells [5] = assay: Simultaneous Ki-67 proliferation and centriole number assay in c-Myc transfected cells; conditions: 10 μM butabindide for 24 hours
Protocol: For immunofluorescence analysis, sections of formalin-fixed, paraffin-embedded tissue were processed as described previously (Duensing, 2000 Proc Natl Acad 801 USA 97, 10002-7). Cultured cells were either grown on coverslips or cytospin preparations were made from cells growing in suspension. Cells were fixed in 4% paraformaldehyde in PBS and permeabilized with 1% Triton-X 100 in PBS for 10 min each at room temperature. Cells were then blocked with 10% normal donkey serum (Jackson Immunoresearch, West Grove, Pa.) and incubated with a mouse monoclonal anti-γ-tubulin antibody (GTU-88; Sigma Corp.; St. Louis, Mo.) at a 1:2000 dilution overnight at 4° C. followed by a donkey anti-mouse rhodamine red conjugated secondary antibody (Jackson ImmunoResearch Laboratories, Inc., West Grove, Pa.) at a 1:100 dilution in PBS or a donkey anti-mouse FITC labeled secondary antibody at a 1:200 dilution in PBS for 2 hours at 37° C. Ki-67 was detected using a mouse monoclonal antibody (clone Ki-67; Dako Cytomation California, Inc., Carpinteria, California) at a 1:100 dilution followed by a rhodomine red-labeled donkey anti-mouse secondary antibody as described above. […] Cells were analyzed using a Leica DMLB epifluorescence microscope equipped with a multiband and a CFP filter set (Omega Optical, Brattleboro, Vt.) and a Sony DKC5000 camera system. […]

CLBL-adapted GA-10 cells [6] = assay: Soft agar colony formation (clonogenic assay); conditions: 10 μM butabindide, one week
Protocol: Clonogenic assay. For assessment of soft agar colony formation, adapted GA-10 cells were suspended in 37° C.
as §3

[7] = tested on: CLBL-adapted Burkitt's lymphoma cells; assay: Mitotic spindle formation / centrosome function; conditions: butabindide treated
Protocol: as §2, §3

Structure (SMILES) | Cell cycle profile (DNA content) (U20S/centrin-GFP cells [1]) | Significance of decrease in abnormal centriole numbers, c-Myc transfected cells (U20S/centrin-GFP cells [2]; 1 μM AAF-CMK, p≦0.05) | Changes in abnormal centriole numbers in E2F-1 or HPV-16 E7 expressing cells (U20S/centrin-GFP cells [2]; E2F-1 or HPV-16 E7 transfected, AAF-CMK for 24 hours) | Proportion of c-Myc expressing cells with abnormal centriole numbers (U20S/centrin-GFP cells [2]; c-Myc transfected, 1 and 10 μM AAF-CMK for 24 hours) | Proportion of cells with abnormal centrosome numbers (GA-10 cells) [%] | Cell viability of GA-10 cells ([3]; 1 μM CLBL) | Time until cell survival was restored ([3]; 1 μM CLBL) [days] | Cell viability of GA-10 cells at higher concentrations ([3]; higher concentrations of CLBL than 1 μM) | Protein levels of TPPII (TPPII) | Decrease of abnormal centriole duplication driven by E2F-1 (U20S/centrin-GFP cells [2]; E2F-1 transfected, 0.8 mM CLBL for 24 hours, p≦0.05) [fold] | Decrease of abnormal centriole duplication driven by HPV-16 E7 (U20S/centrin-GFP cells [2]; HPV-16 E7 transfected, 0.8 mM CLBL for 24 hours, p≦0.01) [fold] | Proportion of cells with abnormal centriole numbers in cells expressing c-Myc (U20S/centrin-GFP cells [2]; c-Myc transfected, 0.8 mM CLBL for 24 hours) | Growth of CLBL-adapted GA-10 cells (CLBL-adapted GA-10 cells [4]) | Ki-67 negative growth arrested cells (U20S/centrin-GFP cells [5]) | Number of c-Myc expressing cells with abnormal centriole numbers (mostly Ki-67 positive) (U20S/centrin-GFP cells [5]; CFP transfection marker) | Colony formation in soft agar (CLBL-adapted GA-10 cells [6]) | Spindle formation in treated cells [7] | Cells unable to nucleate a microtubule spindle ([7]; 44% without) [%] | Number of c-Myc expressing cells with abnormal centriole numbers (U20S/centrin-GFP cells [2]; c-Myc transfected, butabindide increasing concentrations up to 10 μM, 24 hours, p≦0.001)
C[C@H](N)C(=O)N[C@@H](C)C(=O)N[C@@H](Cc1ccccc1)C(=O)CCl [AAF-CMK, H-Ala-Ala-Phe-chloromethylketone] (H-Ala-Ala-Phe-CH2Cl) | neither treatment of cells with 10 μM AAF-CMK, nor with 10 μM butabindide, was found to substantially alter the cell cycle profile | statistically significant | not significant | Reduction of the proportion of c-Myc expressing cells with abnormal centriole numbers | – | – | – | – | – | – | – | – | – | – | – | – | – | – | –
CC(C)[C@H](O)[C@@]12NC(=O)[C@H](C)[C@@H]1OC2=O [CLBL, clastolactacystin β-lactone] | – | – | – | – | 19.4 | marked decrease of cell viability | ≤ 10 | massive cell death | increased protein levels of TPPII | 1.7 | 2 | did not significantly reduce | – | – | – | – | – | – | –
CCCCNC(=O)[C@@H]1Cc2ccccc2N1C(=O)[C@@H](N)CC [butabindide] | neither treatment of cells with 10 μM AAF-CMK, nor with 10 μM butabindide, was found to substantially alter the cell cycle profile | – | – | – | – | – | – | – | – | – | – | – | reduced the growth of CLBL-adapted GA-10 cells in a dose dependent manner | major increases of Ki-67 negative growth arrested cells were not observed | decrease in the number of c-Myc expressing cells with abnormal centriole numbers | significantly suppressed colony formation | abrogation of spindle formation | 66 | dose-dependent and statistically highly significant reduction; also recorded: completely blocks abnormal centriole duplication
